Assay results reported in ChEMBL document CHEMBL3414535, “Identification and optimization of Escherichia coli GlmU inhibitors: an in silico approach with validation thereof” (Eur J Med Chem, 2015).

Molecular target: Bifunctional protein GlmU (Escherichia coli (strain K12)) (UniProt P0ACC7)
Experiment: Inhibition of Escherichia coli GlmU acetyltransferase activity assessed as coenzyme A production using acetyl CoA substrate at 100 uM

Chain of Bifunctional protein GlmU (Escherichia coli (strain K12)) (P0ACC7 whole entry, looked up): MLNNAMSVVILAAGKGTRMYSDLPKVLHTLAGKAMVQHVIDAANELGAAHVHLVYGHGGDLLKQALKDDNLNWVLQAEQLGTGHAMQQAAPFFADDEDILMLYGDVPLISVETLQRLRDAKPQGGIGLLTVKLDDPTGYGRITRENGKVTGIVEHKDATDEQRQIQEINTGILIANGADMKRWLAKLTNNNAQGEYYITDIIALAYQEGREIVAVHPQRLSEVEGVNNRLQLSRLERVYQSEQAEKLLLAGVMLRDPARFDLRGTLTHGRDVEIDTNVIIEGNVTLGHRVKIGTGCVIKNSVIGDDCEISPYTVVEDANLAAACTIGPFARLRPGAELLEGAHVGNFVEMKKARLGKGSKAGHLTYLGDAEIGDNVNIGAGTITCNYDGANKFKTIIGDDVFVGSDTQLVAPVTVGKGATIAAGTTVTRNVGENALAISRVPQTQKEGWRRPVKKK

Row | inhibition | SMILES
1 | 11.1% | Cc1ccc(S(=O)(=O)n2ccn(C(=O)C(C)Oc3ccccc3)c2=O)cc1 (stereo unspecified)
2 | 10.3% | CCOC(=O)c1cc(S(=O)(=O)N2CCCC2C(=O)NC(C)C)cn1C (stereo unspecified)
3 | 15.2% | CCOC(=O)c1c(S(=O)(=O)NCC(=O)Nc2ccccc2)c(C)n(C)c1C
4 | 44.7% | O=S(=O)(NCc1cccnc1)c1ccc(-c2ccno2)o1
5 | 5.65% | COC(=O)c1cc(S(=O)(=O)Nc2cccc(SC)c2)c[nH]1
6 | 28.6% | CC(Sc1nnc(O)nc1O)C(=O)OCc1ccccc1 (stereo unspecified)
7 | 25.9% | Cc1nc2c(c(SCC(=O)c3ccc(O)cc3O)n1)CCC2
8 | 9.82% | CCc1ccccc1NS(=O)(=O)c1ccc(-c2ccc(=O)[nH]n2)o1
9 | 14.3% | CCOC(=O)c1cc(S(=O)(=O)N(C)CC(=O)Nc2ccc(C)cn2)cn1C
10 | 24.6% | CC(=O)Cc1nsc(NC(=O)C2(C)Cc3ccccc3C(=O)O2)n1 (stereo unspecified)
11 | 21.1% | CCn1c(C)c(-c2nc(C3CC3)no2)c(S(=O)(=O)NCC2CCCO2)c1C (stereo unspecified)
12 | 82.9% | CC(C)C(=O)N1CCCc2cc(NS(=O)(=O)c3cccc(F)c3)ccc21
13 | 28.4% | O=C(CN1c2cccc3cccc(c23)S1(=O)=O)Nc1ccc(F)c(F)c1
14 | 19.3% | COc1cc(NS(=O)(=O)c2c[nH]c3ncccc23)cc(OC)c1
15 | 20.1% | CCCN1C=NS(=O)(=O)c2cc(C(=O)Nc3ccccc3F)ccc21
16 | 13.3% | O=S(=O)(c1ccccc1)c1nc(-c2ccsc2)oc1NCC1CCCO1 (stereo unspecified)
17 | 7.99% | CCOC(=O)c1cc(S(=O)(=O)N2CCCC2C(=O)N2CCCC2)cn1C (stereo unspecified)
18 | 30.8% | CCOC(=O)c1cc(S(=O)(=O)N2CCCC2C(=O)NC(C)(C)CC)cn1C (stereo unspecified)
19 | 68.7% | CSc1cccc(NS(=O)(=O)c2cc3c(cc2Cl)NC(=O)CO3)c1
20 | 28.6% | CN1C(C(=O)NCC2CCCO2)=CC(c2ccco2)=NS1(=O)=O (stereo unspecified)
21 | 17.1% | COc1ccc(S(=O)(=O)C(CNC(=O)c2ccccc2)c2ccco2)cc1 (stereo unspecified)
22 | 16.8% | CCOc1ccc(OCC)c(Nc2c(-c3ccccc3)c(=O)c2=O)c1
23 | 25.9% | O=S(=O)(Nc1ccc(F)c(F)c1)c1c[nH]c2ncccc12
24 | 9.41% | CCOC(=O)CC1(c2ccccc2)SC(NC(C)=O)=NN1C(C)=O (stereo unspecified)
25 | 45.3% | CCOC(=O)COc1ccccc1/C=C1\N=C(SCC)SC1=O
26 | 32.3% | O=S(=O)(c1cc(-c2nnc(C3CCCC3)o2)co1)N1CCc2ccccc2C1
27 | 12% | COCCNC(=O)c1ccccc1NS(=O)(=O)c1ccc2c(c1)OCCO2
28 | 15.8% | O=C(Nc1nc(S(=O)(=O)Cc2ccccc2)ns1)c1ccccc1

Row | inhibition | SMILES
29 | 16.2% | CCOC(=O)c1c(S(=O)(=O)NCC(=O)Nc2cccnc2)c(C)n(C)c1C
30 | 11.9% | CCOC(=O)c1cc(S(=O)(=O)N(C)CC(=O)Nc2ccc(F)cc2)cn1C
31 | 17.5% | O=C(Nc1nonc1-c1ccccc1)C1COc2ccccc2O1 (stereo unspecified)
32 | 14.8% | O=S(=O)(Nc1cc(F)cc(F)c1)c1c[nH]c2ncccc12
33 | 21.1% | COc1ccccc1NS(=O)(=O)c1cc(-c2cnc(C3CC3)o2)ccc1C
34 | 16.5% | CCOC(=O)c1c(C)[nH]c(C)c1S(=O)(=O)NCC(=O)Nc1cccnc1
35 | 3.74% | COC(=O)c1cc(S(=O)(=O)Nc2cccc(Cl)c2C)c[nH]1
36 | 20.7% | O=S(=O)(c1ccccc1)c1nc(-c2ccco2)oc1NCCCn1ccnc1
37 | 36% | COc1ccc(-c2cnc(C)o2)cc1S(=O)(=O)Nc1cccc(F)c1
38 | 25.5% | COC(=O)C1CN(C(=O)C(C)Oc2ccccc2F)c2ccccc2O1 (stereo unspecified)
39 | 45.1% | COc1ccc(Cl)cc1N(CC(=O)O)S(=O)(=O)c1ccccc1
40 | 19.8% | O=C(CN1c2ccc(F)cc2-c2ccccc2S1(=O)=O)Nc1cccnc1
41 | 5.22% | COC(=O)c1cc(S(=O)(=O)Nc2ccc(C)cc2Cl)c[nH]1
42 | 28.1% | Cc1nn(-c2ccccc2)c(O)c1/C=N/NC(=O)C(O)c1ccccc1 (stereo unspecified)
43 | 20.9% | Cc1cc(SCC(=O)c2ccc(O)cc2O)ncn1
44 | 30.6% | O=S(=O)(NCc1ccccn1)c1ccc(-c2ccno2)o1
45 | 16.8% | O=S(=O)(Nc1cc(F)ccc1F)c1c[nH]c2ncccc12
46 | 18.5% | c1cncc(CNc2nnc(-c3nc(C4CC4)no3)c3ccccc23)c1
47 | 18.4% | O=C(CSC1=NS(=O)(=O)c2ccccc2N1)OCc1ccccc1
48 | 12.6% | Cc1cc(S(=O)(=O)C(CNC(=O)c2ccco2)c2ccco2)ccc1F (stereo unspecified)
49 | 29.2% | CCOc1ccc(OCC)c(NS(=O)(=O)c2ccc3c(c2)N(C)CCO3)c1
50 | 34.4% | Cc1ccc(C)c(NS(=O)(=O)c2ccc(-c3nnc(C(C)C)o3)o2)c1
51 | 40% | COc1cc(Nc2c(-c3ccccc3)c(=O)c2=O)cc(OC)c1
52 | 25.1% | O=C(NCCN1CCCC1)C1=C2CCCN2c2ccc(F)cc2S1(=O)=O
53 | 42% | COc1ccc(OC)c(N(CC(=O)O)S(=O)(=O)c2ccccc2)c1
54 | 22.1% | CCn1cc(C(=O)NCc2ccco2)c(S(=O)(=O)N2CCSCC2)n1
55 | 40.6% | COc1ccc(-c2cnc(C)o2)cc1S(=O)(=O)Nc1cccc(Cl)c1

Row | SMILES | inhibition
56 | COc1ccc(C2SCC(=O)Nc3[nH]nc(C)c32)c(OC)c1OC (stereo unspecified) | 20.5%

Molecular target: Bifunctional protein GlmU (Escherichia coli (strain K12), UniProt P0ACC7)
Experiment: Inhibition of Escherichia coli GlmU acetyltransferase activity assessed as coenzyme A production using acetyl CoA substrate

Chain of Bifunctional protein GlmU (P0ACC7 whole entry): as the sequence (P0ACC7 whole entry, looked up) above

Row | SMILES | IC50
57 | COc1cc(OC)c(S(=O)(=O)N(c2ccccc2)c2ccccc2)cc1NC(=O)CCC(=O)O | 40 nM
58 | COc1cc(O)c(S(=O)(=O)N2c3ccccc3Oc3ccccc32)cc1NC(=O)[C@H]1[C@H](C)[C@@H]1C(=O)O | 60 nM
59 | COc1cc(OC)c(S(=O)(=O)N2c3ccccc3Oc3ccccc32)cc1NC(=O)Cc1ccnc(F)c1 | 90 nM
60 | COc1cc(OC)c(S(=O)(=O)N(c2ccccc2)c2ccc(N)cc2)cc1NC(=O)CCC(=O)O | 20 nM
61 | COc1cc(OC)c(S(=O)(=O)NCc2ccccc2N2CCCCC2)cc1NC(=O)CCC(=O)O | 3000 nM
62 | COc1cc(OC)c(S(=O)(=O)N(c2ccccc2)c2ccc3ccccc3c2)cc1NC(=O)CCC(=O)O | 40 nM
63 | COc1cc(OC)c(S(=O)(=O)N(c2ccc(C)cc2)c2ccc(C)cc2)cc1NC(=O)CCC(=O)O | 40 nM
64 | COc1cc(OC)c(S(=O)(=O)NCc2ccccc2-c2ccc(C(=O)O)cc2)cc1NC(=O)CCC(=O)O | 900 nM
65 | COc1cc(OC)c(S(=O)(=O)NCc2ccccc2N2CCC(COC(=O)CCC(=O)O)CC2)cc1NC(=O)CCC(=O)O | 250 nM
66 | COc1cc(OC)c(S(=O)(=O)NCc2ccccc2N2CCC(C(=O)O)CC2)cc1NC(=O)CCC(=O)O | 500 nM

Second part, the molecule after the results:

Row | IC50 | SMILES
67 | 15000 nM | COc1cc(OC)c(S(=O)(=O)NCc2ccccc2CC(=O)O)cc1NC(C)=O
68 | 400 nM | COc1cc(OC)c(S(=O)(=O)N2c3ccccc3CC[C@@H]2C)cc1NC(=O)[C@@H]1[C@@H](C)[C@H]1C(=O)O
69 | 500 nM | COc1cc(OC)c(S(=O)(=O)N2c3ccccc3CC[C@H]2C)cc1NC(=O)NCC(=O)O
70 | 1500 nM | COc1cc(OC)c(S(=O)(=O)N2c3ccccc3CC[C@H]2C)cc1NC(C)=O
71 | 20000 nM | COc1cc(OC)c(S(=O)(=O)Nc2ccccc2)cc1NC(C)=O
72 | 80000 nM | COc1cc(OC)c(S(=O)(=O)N2CCCCC2)cc1NC(C)=O
73 | 10000 nM | COc1ccccc1CNS(=O)(=O)c1cc(NC(C)=O)c(OC)cc1OC
74 | 3000 nM | COc1cc(OC)c(S(=O)(=O)NCc2ccccc2N2CCC(CO)CC2)cc1NC(=O)CCC(=O)O
75 | 40000 nM | COc1cc(OC)c(S(=O)(=O)NCc2ccccc2N2CCC(CO)CC2)cc1NC(C)=O
76 | 10 nM | COc1cc(OC)c(S(=O)(=O)N2c3ccccc3Oc3ccccc32)cc1NC(=O)/C=C/C(=O)O
77 | 200000 nM | COc1cc(OC)c(S(=O)(=O)NCc2ccccc2N2CCCCC2)cc1NC(C)=O
78 | 480 nM | COc1cc(O)c(S(=O)(=O)N2c3ccccc3CC[C@H]2C)cc1NC(=O)[C@H]1[C@H](C)[C@H]1C(=O)O
79 | 5000 nM | COc1cc(OC)c(S(=O)(=O)Nc2ccccc2F)cc1NC(C)=O
80 | 90 nM | COc1cc(OC)c(S(=O)(=O)N2c3ccccc3CC[C@@H]2C)cc1NC(=O)CCC(=O)O
81 | 30 nM | COc1cc(OC)c(S(=O)(=O)N2Cc3ccccc3Oc3ccccc32)cc1NC(=O)CCC(=O)O
82 | 50 nM | COc1cc(O)c(S(=O)(=O)N2c3ccccc3CC[C@H]2C)cc1NC(=O)CCC(=O)O
83 | 2000 nM | COc1cc(OC)c(S(=O)(=O)N2c3ccccc3CC[C@H]2C)cc1NC(=O)COC(C)=O
84 | 680 nM | COc1cc(OC)c(S(=O)(=O)N2c3ccccc3CC[C@@H]2C)cc1NC(=O)Cc1ccnc(C#N)c1

Row | IC50 | SMILES
85 | 500 nM | COc1cc(OC)c(S(=O)(=O)N2c3ccccc3CC[C@H]2C)cc1NC(=S)NCC(=O)O
86 | 200000 nM | COc1cc(OC)c(S(=O)(=O)N2CCC[C@H]2C)cc1NC(C)=O
87 | 21000 nM | COc1cc(OC)c(S(=O)(=O)Nc2ccc(C)cc2)cc1NC(C)=O
88 | 200000 nM | COc1cc(OC)c(S(=O)(=O)N2c3ccccc3CC[C@@H]2C)cc1NC(=O)c1ccccc1
89 | 100000 nM | COc1cc(OC)c(S(=O)(=O)N2c3ccccc3CC[C@H]2C)cc1NS(C)(=O)=O
90 | 200000 nM | COc1cc(OC)c(S(=O)(=O)N2c3ccccc3CC[C@@H]2C)cc1NC(=O)COc1ccc(C(C)=O)cc1
91 | 30 nM | COc1cc(OC)c(S(=O)(=O)N2c3ccccc3Oc3ccccc32)cc1NC(=O)[C@H]1[C@@H](C)[C@H]1C(=O)O
92 | 90 nM | COc1cc(OC)c(S(=O)(=O)N2c3ccccc3Sc3ccccc32)cc1NC(=O)CCC(=O)O
93 | 10 nM | COc1cc(OC)c(S(=O)(=O)N2c3ccccc3Oc3ccccc32)cc1NC(=O)CCC(=O)O
94 | 25000 nM | COc1cc(OC)c(S(=O)(=O)Nc2ccc(F)cc2)cc1NC(C)=O
95 | 130000 nM | COc1cc(OC)c(S(=O)(=O)N2CCCC[C@@H]2C)cc1NC(C)=O
96 | 15000 nM | CCN(c1ccccc1C)S(=O)(=O)c1cc(NC(C)=O)c(OC)cc1OC
97 | 1000 nM | COc1cc(OC)c(S(=O)(=O)N2c3ccccc3CC[C@H]2C)cc1NC(=O)CSc1ccncc1
98 | 200000 nM | COc1cc(OC)c(S(=O)(=O)N(C)C)cc1NC(C)=O
99 | 4000 nM | COc1cc(OC)c(S(=O)(=O)NCc2ccccc2Br)cc1NC(C)=O
100 | 100 nM | COc1cc(OC)c(S(=O)(=O)N2c3ccccc3CC[C@H]2C)cc1NC(=O)CSCC(=O)O
101 | 15000 nM | COc1cc(OC)c(S(=O)(=O)Nc2cccc(F)c2)cc1NC(C)=O
